According to patent US7947657B2, “Method for selective inhibition of human N-myc gene in N-myc expressing tumors through antisense and antigen peptido-nucleic acids (PNA)” (Universita Degli Studi Di Parma, priority 2003, dated 2011):
Entries after “also recorded” stand apart in the source; their conditions may differ.

Key:
GI-LI-N cells [1] = experiment: microscopic analysis of morphologic changes/differentiation of GI-LI-N cells; type: cell-based, human; conditions: 20 μM
Method: In order to assess the differentiation of GI-LI-N cells towards neuronal cells, said cell line has been treated with 20 μM antisense PNA, whereby morphologic changes have been detected by means of microscopic analysis.
Microscope assessment has been carried 36 and 48 hours after GI-LI-N cell growth in the presence or absence of 20 μM antisense PNA.

GI-LI-N cells [2] = experiment: cell growth/proliferation test, cell counting and vitality by tryphan blue exclusion; type: cell-based, human; conditions: for maximum inhibition effect on cell growth / inhibition effect in proliferation tests: GI-LI-N cells; for maximum inhibition effect on cell growth: 48 hours after treatment
Method: (§1) In order to show the effectiveness of the peptide nucleic acids selected by the Applicant, the latter has carried out experimental tests by selecting four neuroblastoma cell lines: GI-LI-N, IMR-32 where N-myc gene is amplified and overexpressed; and GI-CA-N, GI-ME-N where N-myc gene is not amplified and is not expressed.
(§2) In threefold tests using plates with 24 wells, 1.0×10^5 cells have been introduced into the first wells with 0.5 ml of RPMI1640 containing 10% of FBS and 2 mM of […].
(§3) Cells have been incubated for 24 hours so as to let them adhere to the base of the wells.
(§4) Then, in order to assess the optimal concentration for cell growth inhibition, peptide nucleic acid has been added to GI-LI-N cells in concentration of 10, 20, 40 and 60 μM for 5′-UTR antisense PNA, whereas for sense and antisense anti-gene PNAs in concentrations of 1, 2, 5, 10 and 20 μM on GI-LI-N and IMR-32 cells-
(§5) Then, in order to assess the effects of the treatments, cells have been collected and counted 24, 48 and 72 hours after treatment.
(§6) Cells counting and vitality has been determined using colorimetric exclusion method (tryphan blue dye).

N-MYC (protein) = experiment: production of N-MYC protein by Western Blotting in GI-LI-N cell line; type: cell-based, human; conditions: for N-MYC protein level (Western Blotting): 20 μM, GI-LI-N
GI-LI-N cells [3] = experiment: flow cytometric cell cycle analysis on GI-LI-N cells; type: cell-based, human
Text: Moreover, the number of cells in sub-G1 phase with a hypodiploic DNA content (lower number of chromosomes than diploid DNA, i.e. 2n) increases from 3 to 22%.

GI-CA-N cells [4] = experiment: cell growth/proliferation test, cell counting and vitality by tryphan blue exclusion; type: cell-based, human; conditions: same conditions
Method: as §1, §2, §3
In order to assess the specificity of sense and antisense anti-gene PNAs, GI-ME-N and GI-CA-N (in which N-myc gene is not amplified and is not […] for sense anti-gene PNA).
as §5, §6

GI-CA-N cells [5] = experiment: cell entry and intracellular localization by fluorescence microscopy of rhodamine-conjugated PNA; type: cell-based, human
Method: (§7) In order to assess the ability of antisense PNAs and of anti-gene PNAs to get into human neuroblastoma cells and to analyze the subsequent intracellular localization, the Applicant has used four cell lines GI-LI-N and IMR-32, GI-CA-N and GI-ME-N- and has treated them for 30 minutes to 24 hours with 20 μM of antisense or sense PNA conjugated with rhodamine in 5′. Anti-gene PNAs were further conjugated with NLS in 3′.

GI-LI-N cells [6] = experiment: as above; type: cell-based, human
Method: as §7

IMR-32 cells [7] = experiment: cell growth/proliferation test, cell counting and vitality by tryphan blue exclusion; type: cell-based, human; conditions: 10 μM
Method: as §1, §2, §3, §4, §5, §6

HT29 cells = experiment: cell growth/proliferation test in colon carcinoma cells; type: cell-based; conditions: 10 μM
Method: (§8) The treatment with 10 μM sense anti-gene PNA has also been carried out in HT29 cells (deriving from colon carcinoma) and in HeLa cells (deriving from cervical carcinoma) expressing N-myc gene.

HeLa cells = experiment: cell growth/proliferation test in cervical carcinoma cells; type: cell-based; conditions: 10 μM
Method: as §8

IMR-32 cells [8] = experiment: cytofluorimetric cell cycle analysis in IMR-32 cells; type: cell-based, human; conditions: 10 μM; for cells in G2/M / cells in Go/G1 / cells in S phase: IMR-32
Method: A cytofluorimetric analysis in IMR-32 cells 24 and 48 hours after the treatment with sense anti-gene PNA in a concentration of 10 μM, induced a cell accumulation in Go/G1 (from 39% to 53% after 24 hours; from 31% to 53% after 48 hours) and decrease in G2/M (from 17% to 6% after 24 hours; from 25% to 9% after 48 hours) and S phase (from 45 to 41% after 24 hours; from 44% to 39% after 48 hours).

N-MYC protein = experiment: production of N-MYC protein by Western Blotting in IMR-32 cell line; type: cell-based, human; conditions: 10 μM
Method: In further tests on sense anti-gene PNA, the production of N-MYC protein was assessed by using Western Blotting in IMR-32 cell line after 3 hours of treatment with 10 μM sense anti-gene PNA. A reduction of 50% of protein level has been detected after 3 hours of treatment with sense anti-gene PNA.

N-myc transcript = experiment: production of N-myc transcript by PCR of cDNA from GI-LI-N cells; type: cell-based, human; conditions: 10 μM, 30 PCR cycles, easily detected in untreated cells
Method: The production of N-myc transcript was assessed before and after […] treatment with 10 μM sense anti-gene PNA by amplification in PCR of cDNA obtained from 250 ng of mRNA of GI-LI-N cells. The following primers have been used: sense SEQ ID NO: 5 (ExonE 2, by 2366); antisense SEQ ID NO: 6(Exon 3, by 5095) (Genbank M13241). PCR has been carried out with 30 reaction cycles.

GI-ME-N cells = experiment: cell growth/proliferation test, cell counting and vitality by tryphan blue exclusion; type: cell-based, human; conditions: 10 μM; GI-ME-N cells (N-myc not amplified, not expressed); same conditions
Method: as §1, §2, §3
In order to assess the specificity of sense and antisense anti-gene PNAs, GI-ME-N and GI-CA-N (in which N-myc gene is not amplified and is not expressed) have been treated with sense and antisense anti-gene PNA in a concentration of […] (optimal concentration selected for sense anti-gene PNA).
as §5, §6

[9] = same test conditions used for sense anti-gene PNA
[10] = 10 μM, cell line not restated (GI-LI-N)

antisense PNA: antisense peptide nucleic acid (bp 135-150, SEQ ID NO: 1) complementary to one sequence in 5′-UTR region of N-myc gene (antisense TCCACCCAGCGCGTCC; all peptide nucleic acid (PNA))
morphologic changes (microscope) (GI-LI-N cells [1]; after 36 hours): less uniform distribution than control cells
morphologic changes (microscope) (GI-LI-N cells [1]; after 48 hours): tend to form small cell aggregates
maximum inhibition effect on cell growth (GI-LI-N cells [2]; 20 μM): 70%
N-MYC protein level (Western Blotting) (N-MYC (protein); after 24 hours): evident reduction
N-MYC protein level (Western Blotting) (N-MYC (protein); after 72 hours): reduction decreases
cells in sub-G1 phase with hypodiploic DNA content (GI-LI-N cells [3]; 20 μM, GI-LI-N, 36 hours after treatment, from 3 untreated): 22%
cells in G2 (GI-LI-N cells [3]; 20 μM, GI-LI-N, 36 hours after treatment, from 13 untreated): 6%
cells in G0/G1 (GI-LI-N cells [3]; 20 μM, GI-LI-N, 36 hours after treatment, from 34% untreated): 57%
cells in S phase (GI-LI-N cells [3]; 20 μM, GI-LI-N, 36 hours after treatment, from 53% untreated): 37%
inhibition effect on cell growth (GI-CA-N cells [4]; 20 μM, GI-CA-N cells (N-myc not amplified)): do not show any inhibition effect
time after treatment at which intracytoplasmatic fluorescence can already be measured (GI-CA-N cells [5]; 20 μM PNA conjugated with rhodamine in 5′): ≤ 30 min
time to maximum fluorescence intensity (GI-CA-N cells [5]; 20 μM rhodamine-conjugated PNA, level then constant for 24 hours): 6 h
time after treatment at which intracytoplasmatic fluorescence can already be measured (GI-LI-N cells [6]; 20 μM PNA conjugated with rhodamine in 5′, GI-LI-N): ≤ 30 min
time to maximum fluorescence intensity (GI-LI-N cells [6]; 20 μM rhodamine-conjugated PNA, GI-LI-N, level then constant for 24 hours): 6 h
intracellular localization of fluorescence (GI-LI-N cells [6]; 20 μM rhodamine-conjugated PNA, cell lines of b80): High intracytoplasmatic values

antisense anti-gene PNA: antisense anti-gene PNA (SEQ ID NO: 4) complementary to a sequence of exon 2 N-myc gene, NLS-conjugated (antisense AGATCATGCCCGGCAT; all peptide nucleic acid (PNA); SV40 nuclear localization signal peptide conjugated at 3' end, further chemistry not fully specified)
inhibition effect in proliferation tests (GI-LI-N cells [2]; 10 μM): have not shown any inhibition effect; also recorded: do not show any inhibition effect
inhibition effect in proliferation tests (IMR-32 cells [7]; IMR-32 cells): have not shown any inhibition effect; also recorded: do not show any inhibition effect

mutated anti-gene PNA: mutated PNA containing the substitution of three bases (SEQ ID NO: 7), specificity control for sense anti-gene PNA (GTGCCGAGCATGGTCT; all peptide nucleic acid (PNA))
inhibition effect in proliferation tests (HT29 cells): have not shown any inhibition effect
inhibition effect in cell vitality (IMR-32 cells [7]; [9]): No inhibition effect
inhibition effect in proliferation tests (HeLa cells): have not shown any inhibition effect
inhibition effect in cell cycle (IMR-32 cells [8]; [9]): No inhibition effect
inhibition effect in the amount of N-MYC protein (N-MYC protein; [9]): No inhibition effect

mutated antisense PNA: mutated PNA containing the substitution of three bases (SEQ ID NO: 2), specificity control for antisense PNA (CCCACTCAGCGCGCCC; all peptide nucleic acid (PNA))
inhibition effect in cell vitality (GI-LI-N cells [2]; [10]): no inhibition effect
inhibition effect in proliferation tests (GI-LI-N cells [2]; 20 μM): have not shown any inhibition effect
inhibition effect in the amount of N-MYC protein (N-MYC (protein); [10]): no inhibition effect
inhibition effect in cell cycle (GI-LI-N cells [3]; [10]): no inhibition effect

sense anti-gene PNA: sense anti-gene PNA (SEQ ID NO: 3) complementary to a sequence of exon 2 N-myc gene, NLS-conjugated (ATGCCGGGCATGATCT; all peptide nucleic acid (PNA); SV40 nuclear localization signal peptide conjugated at 3' end, further chemistry not fully specified)
maximum inhibition effect on cell growth (HT29 cells; 48 hours after treatment): 70%
maximum inhibition effect on cell growth (GI-LI-N cells [2]; 10 μM): 90%
maximum inhibition effect on cell growth (IMR-32 cells [7]; IMR-32 cells, 48 hours after treatment): 80%
maximum inhibition effect on cell growth (HeLa cells; 24 hours after treatment): 70%
cells in G2/M (IMR-32 cells [8]; after 24 hours, from 17% untreated): 6%
cells in Go/G1 (IMR-32 cells [8]; after 24 hours, from 39% untreated): 53%
cells in S phase (IMR-32 cells [8]; after 24 hours, from 45 untreated): 41%
cells in G2/M (IMR-32 cells [8]; after 48 hours, from 25% untreated): 9%
cells in Go/G1 (IMR-32 cells [8]; after 48 hours, from 31% untreated): 53%
cells in S phase (IMR-32 cells [8]; after 48 hours, from 44% untreated): 39%
PCR product of N-myc transcript (N-myc transcript): cannot be detected
reduction of N-MYC protein level (Western Blotting) (N-MYC protein; IMR-32, after 3 hours of treatment): 50%
inhibition effect on cell growth (GI-CA-N cells [4]; 10 μM, GI-CA-N cells (N-myc not amplified, not expressed)): do not show any inhibition effect
inhibition effect on cell growth (GI-ME-N cells): do not show any inhibition effect
